Experiment [1] concerns TBI mice (controlled cortical impact). As to the kind of experiment: Histological assessment of lesion volume and NeuN stereology count of CA1 neurons. Type of experiment: in vivo, mouse. The source says:
(§1) The representative MRI images show a vehicle-treated TBI mouse with the brain lesion visible through 4 mm (8 mm×0.5 mm longitudinal sections) of tissue, whereas DAPT treatment results in damage through only 1.5 mm (3 mm×0.5 mm sections) (FIG. 13). […] The damage to the hippocampus was not as extensive as that seen in the Bacel study; however, cell loss in the CA1 region of mice after TBI was clearly visible (FIG. 16). This allowed quantification of cell loss in the hippocampus (FIG. 17). Neurons were stained with NeuN, a neuronal marker, and an unbiased stereology count was performed. TBI caused a 34% decrease in NeuN-positive cells in the CA1 region of the ipsilateral hippocampus (P<0.05). DAPT treatment attenuated this cell loss, resulting in a 10% reduction in CA1 neurons (P<0.05 versus vehicle-treated TBI mice).

Another experiment has as its system mouse model of stroke. As to conditions: after ischemia and reperfusion; Arumugam et al. 2006; cited from earlier work.
For another experiment, the system named is γ-secretase. As to the kind of experiment: Aβ concentrations in DAPT-treated TBI mice, to confirm γ-secretase inhibition. The settings on record: three hours after final drug administration. Type of experiment: in vivo, mouse. The procedure: (§2) The other secretase involved in amyloidogenic processing of APP is γ-secretase, and the pharmacological inhibitor N-[N-(3,5-difluorophenacetyl-L-alanyl)]-S-phenlyglycine t-butyl ester (DAPT) was used to block enzyme activity. […] Each mouse received the initial dose 15 minutes after CCI or sham surgery and then twice daily for 21 days. This dosing regime was implemented because Aβ is known to drop after γ-secretase inhibition before recovering over several hours (Abramowski et al., J. Pharmacol. Exp. Ther. 327:411-24 (2008), El Mouedden et al., Curr. Pharm. Des. 12:671-6 (2006)). To confirm γ-secretase inhibition in DAPT-treated mice, Aβ concentrations were measured. Three hours after final drug administration, Aβ levels were reduced by 25% (13.76±0.8 fmol per mg protein (vehicle-treated TBI mice) versus 10.42±0.4 fmol per mg protein (DAPT-treated TBI mice); P<0.01), and APP carboxy-terminal fragments accumulated.

Experiment [2] relates to TBI mice (controlled cortical impact). The experiment can be described thus: MRI of brain lesion 21 days after CCI. It is filed as in vivo, mouse.
Excerpt: Five mice in each TBI group were randomly chosen for T2-weighted magnetic resonance imaging (MRI) analysis at 21 days after trauma. […] This was confirmed by fixed brain tissue sections (FIG. 7). […] Total lesion volume was reduced by 30% in […] (FIG. 9, P<0.05).
as §1

Experiment [3] shares this test system. The experiment can be described thus: Morris water maze (spatial learning) after CCI. It is filed as in vivo, mouse. The procedure: A Morris water maze paradigm was used to assess spatial learning by training mice to locate a hidden, submerged platform using extramaze visual information (Fox et al., J. Neurotrauma 15:599-614 (1998)). The test was conducted 15-18 days after injury, and each mouse was tested for four trials per day for four consecutive days. Uninjured Bace1^+/+ mice were used as a behavioral control. Injured Bace1^+/+ mice had significant learning impairments on all 4 days of testing compared to uninjured Bace1^+/+ mice (P<0.01). Injured Bace1^−/− mice, however, improved rapidly, and on the final day of testing were indistinguishable from uninjured mice (FIG. 5, P<0.01). All groups had similar escape latencies when presented with a visual platform probe test (uninjured Bace1^+/+, 23.4±6.3 seconds; injured Bace1^+/+, 21.1±7.8 seconds; injured Bace1^−/−, 21.2±4.9 seconds).
as §2
(§3) On the day after CCI, the first beam walk test was conducted. Vehicle-treated TBI mice made 50±0 foot faults and improved to 43±2 foot faults on the final day of testing (FIG. 9). […] Spatial learning with the Morris water maze was also tested.

The test system is the same in experiment [4]. The experiment can be described thus: Beam walk test (fine motor coordination) after CCI. It is filed as in vivo, mouse. The settings on record: for foot faults (beam walk): TBI mice, 50 steps. The procedure: To test the effect of β-secretase on TBI outcome, the B-APP cleaving enzyme-1 (BACE1) Bace1^−/− knockout mouse was used. Bace1 is the initial rate-limiting enzyme for Aβ production. Bace1^−/− mice are unable to produce any species of Aβ (Cai et al., Nat. Neurosci. 4:233-4 (2001)), and the absence of Aβx-40 in brain homogenates by ELISA (0.1±0.09 fmol per mg protein) was confirmed. CCI surgery was performed, and the beam walk test was used to detect fine motor coordination aberrations (Fox et al., J. Neurotrauma 15:599-614 (1998)). This test examines the number of errors (foot faults) made by the right hind limb over 50 steps. The mice were trained on the test before injury, and the test was repeated on 1 day, 3 days, 7 days, 14 days, and 21 days after TBI. Injured Bace1^−/− mice made fewer foot faults at multiple time points, with a 38% final improvement over injured Bace1^+/+ mice (FIG. 4, P<0.001).
as §2, §3

SMILES strings stand for the structures. Entries after “also recorded” stand apart in the source; their conditions may differ.

As for `C[C@H](NC(=O)Cc1cc(F)cc(F)c1)C(=O)N[C@H](C(=O)OC(C)(C)C)c1ccccc1` [DAPT, N-[N-(3,5-Difluorophenacetyl)-L-alanyl]-S-phenylglycine t-butyl ester], the “tissue sparing (histology)” value in experiment [1] (H&E sections, in words) is “spared large areas of cortex and subcortical white matter tracts; also recorded: Subcortical white matter tracts are spared”. For the same compound, in experiment [1] (TBI mice, stereology count), the “reduction in CA1 neurons (NeuN-positive cells, ipsilateral hippocampus)” value is given as 10%. Moreover, in experiment [1] (stereology cell counts, in words), the “neuronal populations in ipsilateral CA1 versus contralateral” value was “This reduction is prevented”. Besides, in experiment [1] (versus vehicle control, in words), the lesion volume result was “reduced”. This compound had a lesion volume decreased in experiment [1] (versus vehicle-treated TBI mice) of over 70%. In addition, in the experiment with mouse model of stroke, the infarct area result is on record as “reduced infarct area” and the neurological function result is “improved neurological function”. Besides, in the experiment on γ-secretase (DAPT 30 mg per kg orally twice daily for 21 days, versus vehicle-treated TBI mice), the Aβ levels reduced was found to be 25%. In the experiment on γ-secretase (DAPT-treated TBI mice), the APP carboxy-terminal fragments entry was “accumulated” and the Aβ concentration was found to be 10.42±0.4 fmol per mg protein. In experiment [2] (injured mice, in words), the “lesion size by MRI” value is listed as “substantially reduced lesion size”. The “depth of tissue through which damage is visible on MRI” value in experiment [2] (representative images, 0.5 mm sections) came to 1.5 mm. The “escape latency, visible platform probe” value in experiment [3] (TBI mice) came to 17.5 ± 3.7 s. Further, the “spatial learning in Morris water maze” value in experiment [3] (TBI mice, 4 days of test, in words) is reported as “indistinguishable from sham-injured mice; also recorded: prevents these deficits”. In addition, the “escape latency, visible platform probe” value in experiment [3] (sham-operated mice) is 13.6 ± 3.4 s. In experiment [4] (21 days after injury), the “improvement in foot faults over vehicle-treated TBI mice” value is on record as 42% and the “foot faults (beam walk)” value is given as 25±5 foot faults. In experiment [4] (day after surgery), the “foot faults (beam walk)” value is 48±1 foot faults. In addition, the “recovery of fine motor coordination on beamwalk test” value in experiment [4] (after 21 days, in words) was “Recovery is improved”.
